# Activity calls are given as the source filed them.
# Columns and labels:
# Cytochrome P450 1A2 = target: T1, Cytochrome P450 1A2 (Homo sapiens, UniProt P05177);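 also: PubChem cytochrome P450 panel assay, CYP1A2 panel member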
# T1 sequence (P05177 whole entry): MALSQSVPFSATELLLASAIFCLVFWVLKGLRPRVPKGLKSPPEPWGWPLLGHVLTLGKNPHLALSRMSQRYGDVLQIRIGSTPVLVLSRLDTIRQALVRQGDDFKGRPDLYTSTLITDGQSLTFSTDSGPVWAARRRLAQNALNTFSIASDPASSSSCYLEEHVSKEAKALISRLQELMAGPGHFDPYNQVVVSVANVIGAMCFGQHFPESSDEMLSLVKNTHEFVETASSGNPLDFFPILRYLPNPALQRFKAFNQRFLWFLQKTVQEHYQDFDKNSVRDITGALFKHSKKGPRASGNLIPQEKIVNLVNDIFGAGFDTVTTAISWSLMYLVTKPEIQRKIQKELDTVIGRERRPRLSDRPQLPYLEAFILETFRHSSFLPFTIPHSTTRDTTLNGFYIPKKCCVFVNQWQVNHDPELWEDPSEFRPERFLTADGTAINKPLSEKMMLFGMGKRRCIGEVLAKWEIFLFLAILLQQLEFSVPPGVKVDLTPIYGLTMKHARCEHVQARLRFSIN
# [1] = target: Luciferin 4-monooxygenase (Photinus pyralis, UniProt P08659); experiment: firefly luciferase enzyme inhibitors, dose response, biochemical, luminescence (AID 1891)
# Luciferin 4-monooxygenase, sequence (P08659 whole entry): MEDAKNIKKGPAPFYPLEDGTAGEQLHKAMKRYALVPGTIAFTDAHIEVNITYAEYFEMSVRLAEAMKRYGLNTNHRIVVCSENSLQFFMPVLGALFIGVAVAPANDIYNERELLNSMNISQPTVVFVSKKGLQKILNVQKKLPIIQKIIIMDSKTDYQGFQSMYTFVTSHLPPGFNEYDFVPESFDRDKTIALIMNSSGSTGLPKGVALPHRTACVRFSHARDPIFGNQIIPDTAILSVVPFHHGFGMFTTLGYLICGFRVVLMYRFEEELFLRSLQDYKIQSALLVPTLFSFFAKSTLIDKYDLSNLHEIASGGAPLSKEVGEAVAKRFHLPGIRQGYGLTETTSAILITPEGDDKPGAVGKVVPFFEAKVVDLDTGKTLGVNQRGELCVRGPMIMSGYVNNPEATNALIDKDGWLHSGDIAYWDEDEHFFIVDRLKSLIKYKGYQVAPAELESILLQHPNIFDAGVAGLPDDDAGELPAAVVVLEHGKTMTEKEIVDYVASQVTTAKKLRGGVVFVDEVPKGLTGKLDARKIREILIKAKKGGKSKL
# [2] = Luminescence Cell-Based Dose Confirmation HTS to Identify Inhibitors of Platelet Dense Granule Release. [Related pubchem assays: 1663 (Primary HTS), 1678 (Summary of Project)]; format: functional
# [3] = target: T2, Zinc finger protein mex-5 (Caenorhabditis elegans, UniProt Q9XUB2); experiment: MEX-5/TCR-2 RNA interaction inhibitors, dose response, biochemical, C. elegans, fluorescence polarization (AID 1960)
# T2 sequence (Q9XUB2 whole entry): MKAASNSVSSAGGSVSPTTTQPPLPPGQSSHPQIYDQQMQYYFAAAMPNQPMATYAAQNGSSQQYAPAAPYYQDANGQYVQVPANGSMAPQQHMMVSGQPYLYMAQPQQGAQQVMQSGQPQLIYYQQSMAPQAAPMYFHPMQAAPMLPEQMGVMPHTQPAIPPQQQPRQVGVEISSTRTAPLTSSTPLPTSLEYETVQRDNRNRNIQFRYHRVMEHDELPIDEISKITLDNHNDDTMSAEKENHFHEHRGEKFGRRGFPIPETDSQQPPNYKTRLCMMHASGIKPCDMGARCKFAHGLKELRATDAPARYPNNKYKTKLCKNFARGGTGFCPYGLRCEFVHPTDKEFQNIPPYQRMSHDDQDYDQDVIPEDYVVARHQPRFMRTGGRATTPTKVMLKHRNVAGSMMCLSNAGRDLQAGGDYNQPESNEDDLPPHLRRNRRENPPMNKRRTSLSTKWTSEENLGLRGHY
# [4] = target: T3, RNA-binding protein pos-1 (Caenorhabditis elegans, UniProt G5EF15); experiment: inhibitors of POS-1/mex-3 RNA binding, dose response, biochemical, fluorescence polarization (AID 1964);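 also: purified POS-1 fused to maltose binding protein made in E. coli; potency of compounds blocking POS-1 binding to fluorescent RNA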
# T3 sequence (G5EF15 whole entry): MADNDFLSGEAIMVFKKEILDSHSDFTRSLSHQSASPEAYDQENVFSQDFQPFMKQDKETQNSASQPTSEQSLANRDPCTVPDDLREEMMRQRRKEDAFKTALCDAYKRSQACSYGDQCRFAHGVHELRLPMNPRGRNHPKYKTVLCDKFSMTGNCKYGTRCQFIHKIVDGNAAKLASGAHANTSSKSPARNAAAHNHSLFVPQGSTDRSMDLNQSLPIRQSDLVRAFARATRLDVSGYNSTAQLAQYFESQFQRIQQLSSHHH
# [5] = system: Streptococcus sp. 'group A'; experiment: growth inhibition of control SK(-) GAS strain, dose response, counter-screen for streptokinase expression inhibitor project, luminescence, kanamycin, BacTiterGlo, confirmation (AID 1900); format: functional, organism-based
# Streptococcus = experiment: Group A Streptococcus viability loss, dose response, counter-screen for streptokinase expression inhibitor project, luminescence, BacTiterGlo (AID 1915); format: functional, organism-based;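 also: potency for reduction of bacterial viability or growth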
# Streptokinase A = target: T4, Streptokinase A (Streptococcus pyogenes serotype M1, UniProt P10520); experiment: S. pyogenes streptokinase expression inhibitors, potency, dose response, plasminogen activation absorbance, OD405 (AID 1914); format: functional, Streptococcus pyogenes M1 GAS;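 also: secreted streptokinase activity via plasminogen activation per viability signal from cell pellet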
# T4 sequence (P10520 whole entry): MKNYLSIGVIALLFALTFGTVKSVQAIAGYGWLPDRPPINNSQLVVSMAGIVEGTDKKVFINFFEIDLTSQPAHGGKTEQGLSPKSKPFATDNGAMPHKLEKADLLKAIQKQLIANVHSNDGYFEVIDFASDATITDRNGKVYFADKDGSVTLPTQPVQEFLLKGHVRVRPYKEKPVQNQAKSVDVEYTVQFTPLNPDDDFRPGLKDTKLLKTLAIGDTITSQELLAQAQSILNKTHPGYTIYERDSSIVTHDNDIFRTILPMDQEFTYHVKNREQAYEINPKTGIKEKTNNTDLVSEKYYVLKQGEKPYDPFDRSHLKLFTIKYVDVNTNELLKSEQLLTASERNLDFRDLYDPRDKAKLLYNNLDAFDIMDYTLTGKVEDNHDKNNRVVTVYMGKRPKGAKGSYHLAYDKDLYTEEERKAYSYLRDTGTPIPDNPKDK
# Cytochrome P450 3A4 = Cytochrome P450 3A4 (Homo sapiens, UniProt P08684);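 also: CYP3A4 tested as one member of a cytochrome P450 panel screen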
# Cytochrome P450 3A4, sequence (P08684 whole entry): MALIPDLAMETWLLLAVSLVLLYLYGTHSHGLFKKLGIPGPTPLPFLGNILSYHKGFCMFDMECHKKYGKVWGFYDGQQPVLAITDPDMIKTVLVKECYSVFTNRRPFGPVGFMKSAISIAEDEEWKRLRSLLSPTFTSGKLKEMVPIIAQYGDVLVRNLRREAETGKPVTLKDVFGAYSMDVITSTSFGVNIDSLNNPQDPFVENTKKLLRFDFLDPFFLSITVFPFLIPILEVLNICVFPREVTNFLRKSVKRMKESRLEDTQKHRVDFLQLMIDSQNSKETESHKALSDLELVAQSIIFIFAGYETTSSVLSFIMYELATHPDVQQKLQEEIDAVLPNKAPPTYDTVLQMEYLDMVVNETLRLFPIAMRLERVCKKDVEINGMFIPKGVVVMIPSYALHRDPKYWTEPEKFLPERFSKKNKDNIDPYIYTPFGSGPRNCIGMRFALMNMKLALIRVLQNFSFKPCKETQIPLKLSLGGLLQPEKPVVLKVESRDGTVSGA
# Cytochrome P450 2C19 = Cytochrome P450 2C19 (Homo sapiens, UniProt P33261); experiment: Cytochrome panel assay with activity outcomes. Panel member name: p450-cyp2c19 Compounds with AC50 equal or less than 10 uM are considered active; format: functional
# Cytochrome P450 2C19, sequence (P33261 whole entry): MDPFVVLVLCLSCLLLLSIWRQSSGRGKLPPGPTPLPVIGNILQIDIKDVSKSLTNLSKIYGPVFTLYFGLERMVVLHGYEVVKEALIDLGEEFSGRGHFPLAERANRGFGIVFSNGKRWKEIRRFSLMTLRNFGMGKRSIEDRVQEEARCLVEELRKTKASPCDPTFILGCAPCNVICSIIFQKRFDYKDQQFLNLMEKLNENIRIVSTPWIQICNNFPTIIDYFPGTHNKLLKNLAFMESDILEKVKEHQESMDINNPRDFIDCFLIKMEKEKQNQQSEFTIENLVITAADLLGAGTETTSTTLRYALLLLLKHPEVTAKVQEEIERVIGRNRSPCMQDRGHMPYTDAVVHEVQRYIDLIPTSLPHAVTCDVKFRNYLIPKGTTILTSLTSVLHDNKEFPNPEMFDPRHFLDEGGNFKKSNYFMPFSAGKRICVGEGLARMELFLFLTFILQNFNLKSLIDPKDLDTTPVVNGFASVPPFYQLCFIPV
compound,measurement,setting,value
Cn1c(N)nc2c(nc(OCc3ccccc3)n2[C@@H]2O[C@H](CO)[C@@H](O)[C@@H]2O)c1=O,AC50,Cytochrome P450 1A2,0.00251 µM (inconclusive)
CCOC1OC2C(CO)OC(n3cnc4c(N)ncnc43)C2O1 (stereo unspecified),EC50,[1],> 112 µM (not active)
same,EC50,[2],6.37 µM (active)
Cc1noc(/C=C/N(C)C)c1S(=O)(=O)N1CCC(C(=O)O)CC1,EC50,[3],> 300 µM (not active)
same,EC50,[4],> 300 µM (not active)
CC1(OC(=O)c2ccc(Cl)nc2)C(=O)C=C2C=C(C3CC3)OC=C2C1=O (stereo unspecified),EC50,[3],14.3 µM (active)
same,EC50,[4],15.1 µM (active)
Cc1cc(Cl)c2oc(C(=O)N3CCC(O)(c4ccccc4)CC3)c(C)c2c1,EC50,[5],5.13 µM (active)
same,EC50,Streptococcus,14.8 µM (active)
same,EC50,Streptokinase A,> 150 µM (not active)
COc1cc(C2NC(=O)NC(O)(C(F)(F)F)C2C(=O)c2ccc(Cl)cc2)ccc1O (stereo unspecified),AC50,Cytochrome P450 3A4,15.8 µM (inconclusive)
same,AC50,Cytochrome P450 1A2,39.8 µM (inconclusive)
same,AC50,Cytochrome P450 2C19; read-out: AC50,11.2 µM (inconclusive)
COc1ccc(NC(=O)N2CC[C@@]3(CCCN(C(C)=O)C3)C2)cc1,AC50,Cytochrome P450 1A2,39.8 µM (inconclusive)
O=C(NNS(=O)(=O)c1ccccc1)c1cccnc1,AC50,Cytochrome P450 3A4,3.98 µM (inconclusive)
same,EC50,[1],> 112 µM (not active)
same,EC50,[2],> 112 µM (not active)
CC(C)c1ccc(NC(=O)NC(C)c2ccc3c(c2)OCO3)cc1 (stereo unspecified),EC50,[5],> 150 µM (not active)
same,EC50,Streptococcus,> 150 µM (not active)
same,EC50,Streptokinase A,> 150 µM (not active)
CC(C)Oc1ccc(CNC(=O)c2ccc3c(c2)N(C)CCS3)cc1,EC50,[1],20.4 µM (active)
same,EC50,[2],> 112 µM (not active)
O=C(NC(c1ccccc1)c1ccccc1)c1ccc(O)nn1,EC50,[1],> 112 µM (not active)
same,EC50,[2],5.32 µM (active)
COc1ccccc1CC(=O)NNC(=O)CN(C)S(=O)(=O)c1ccc(Cl)cc1,EC50,[1],> 112 µM (not active)
same,EC50,[2],> 112 µM (not active)
CC(C)CCC(CCNCc1ccccn1)c1ccc(Cl)cc1 (stereo unspecified),EC50,[5],7.65 µM (active)
same,EC50,Streptococcus,132 µM (active)
same,EC50,Streptokinase A,> 150 µM (not active)
Cc1ccc(Oc2nc3ccccn3c(=O)c2/C=C(\C#N)C(=O)NC2CCS(=O)(=O)C2)cc1 (stereo unspecified),EC50,[1],> 112 µM (not active)
same,EC50,[2],8.55 µM (active)
COC(=O)CCCC1=CC2=CC(=O)C(C)(O)C(=O)C2=CO1 (stereo unspecified),EC50,[3],29 µM (active)
same,EC50,[4],> 300 µM (not active)
C=CCNC(=S)Nc1cc(Cl)ccc1OC,EC50,[3],> 300 µM (not active)
same,EC50,[4],> 300 µM (not active)
CCc1ccc(-c2ccc3nnc(SCC(N)=O)n3n2)cc1,EC50,[5],1.83 µM (active)
same,EC50,Streptococcus,18.6 µM (active)
same,EC50,Streptokinase A,> 150 µM (not active)
COC(=O)c1[nH]c2cccc(OC)c2c1NC(=O)CN1CCOCC1,EC50,[1],> 112 µM (not active)
same,EC50,[2],> 112 µM (not active)
CC1(c2ccccc2)NC(=O)N(CC(=O)N2CCN(S(=O)(=O)c3ccccc3[N+](=O)[O-])CC2)C1=O (stereo unspecified),EC50,[1],> 112 µM (not active)
same,EC50,[2],> 112 µM (not active)
CS(=O)(=O)Nc1ccc(C2=NN(C(=O)C3CCCCC3)C(c3cccs3)C2)cc1 (stereo unspecified),EC50,[5],4.11 µM (active)
same,EC50,Streptococcus,6.38 µM (active)
same,EC50,Streptokinase A,> 150 µM (not active)
Nc1c(NC=O)c(=O)n(Cc2ccccc2)c(=O)n1Cc1ccccc1,EC50,[1],> 112 µM (not active)
same,EC50,[2],> 112 µM (not active)
Cc1ccc(Cn2c(=N)c(C(=O)NCC3CCCO3)cc3c(=O)n4ccccc4nc32)cc1 (stereo unspecified),EC50,[3],> 300 µM (not active)
same,EC50,[4],> 300 µM (not active)
CC(=O)c1ccc(NC(S)=NC(C)CCc2ccccc2)cc1 (stereo unspecified),EC50,[1],> 112 µM (not active)
same,EC50,[2],> 112 µM (not active)
O=c1c(-c2ccc(Cl)cc2)[n+]([O-])c2ccccc2n1OCc1ccccn1,AC50,Cytochrome P450 3A4,7.08 µM (inconclusive)
same,AC50,Cytochrome P450 1A2,1.26 µM (inconclusive)
same,AC50,Cytochrome P450 2C19; read-out: AC50,2.82 µM (inconclusive)
CCOC(=O)c1c(NC(=S)N2CCN(C)CC2)sc(C)c1-c1ccccc1,EC50,Streptokinase A,22.4 µM (active)
O=C1Nc2cc(C(=O)N3CCN(c4ccccn4)CC3)ccc2S/C1=C\c1ccccc1,EC50,[5],3.55 µM (active)
same,EC50,Streptococcus,18.2 µM (active)
same,EC50,Streptokinase A,> 150 µM (not active)
Cc1nn(-c2ccccc2)c(N2CCCC2)c1/C=C1\N=C(c2ccc(F)cc2)OC1=O,EC50,[3],56.7 µM (active)
same,EC50,[4],> 300 µM (inconclusive)
COc1ccc(NC(=O)CN2CCN(CC(=O)Nc3ccccc3Cl)CC2)cc1,AC50,Cytochrome P450 1A2,25.1 µM (inconclusive)
CCCCc1nc(NCc2ccccc2)c(C#N)c2c1CCCC2,EC50,[5],9.14 µM (active)
same,EC50,Streptococcus,19.1 µM (active)
same,EC50,Streptokinase A,2.96 µM (active)
CCn1cc(C(=O)NCc2ccccn2)c(=O)c2cc(S(=O)(=O)N3CCCCC3)ccc21,EC50,[3],102 µM (active)
same,EC50,[4],154 µM (active)
C=C(C)CC1(NC(C)c2ccccc2)CCCCC1 (stereo unspecified),EC50,[1],> 112 µM (not active)
same,EC50,[2],> 112 µM (not active)
CCN(CC)C(=O)CSc1nnc(-c2ccco2)n1N,AC50,Cytochrome P450 1A2,17.8 µM (inconclusive)
CC1=NN(C(N)=S)C(=O)C1N=Nc1c(Cl)cc([N+](=O)[O-])cc1Cl (stereo unspecified),EC50,[3],85.9 µM (active)
same,EC50,[4],> 300 µM (not active)
CSc1nnc(N2C(=O)C(O)=C(C(=O)c3ccco3)C2c2ccccc2)s1 (stereo unspecified),EC50,[3],76.6 µM (active)
same,EC50,[4],> 300 µM (inconclusive)
CCOc1ccc(N2C(=O)CC(Sc3nc4ccc(OCC)cc4s3)C2=O)cc1 (stereo unspecified),EC50,[1],> 112 µM (not active)
same,EC50,[2],> 112 µM (not active)
COc1ccc(N2CCN(CCNC(=O)c3c(C)cc(=O)oc3C)CC2)cc1,AC50,Cytochrome P450 3A4,14.1 µM (inconclusive)
same,AC50,Cytochrome P450 1A2,25.1 µM (inconclusive)
COc1ccc(C2C(C#N)=C(N)OC3=C2C(=O)CCC3)cc1OC (stereo unspecified),EC50,[3],> 300 µM (not active)
same,EC50,[4],> 300 µM (not active)
O=C(Nc1ccccc1)N1CC[C@@]2(CCCN(C(=O)c3cc(C(F)(F)F)cc(C(F)(F)F)c3)C2)C1,AC50,Cytochrome P450 3A4,12.6 µM (inconclusive)
same,AC50,Cytochrome P450 1A2,25.1 µM (inconclusive)
same,AC50,Cytochrome P450 2C19,inconclusive
C1=C(c2ccccc2)Nc2nnnn2C1c1cccs1 (stereo unspecified),EC50,[3],> 300 µM (not active)
same,EC50,[4],> 300 µM (not active)
O=C(Cn1nc(C(=O)O)c2ccccc2c1=O)NCC1CCCO1 (stereo unspecified),EC50,[1],> 112 µM (not active)
same,EC50,[2],> 112 µM (not active)
O=C(c1nc2ccc([N+](=O)[O-])cc2nc1O)[C@@H](O)c1ccc2c(c1)OCO2,AC50,Cytochrome P450 1A2,3.16 µM (inconclusive)
COC(=O)c1ccc(-n2c(C)cc(/C=N/n3cnnc3)c2C)cc1,EC50,[3],> 300 µM (not active)
same,EC50,[4],> 300 µM (not active)
COc1cc(C[C@H]2C(=O)OC[C@@H]2Cc2ccc(OC)c(OC)c2)ccc1O [ARCTIGENIN],AC50,Cytochrome P450 1A2,31.6 µM (inconclusive)
same,AC50,Cytochrome P450 2C19; read-out: AC50,0.00251 µM (inconclusive)
